Data reported in article PMC6986443, “T‐495, a novel low cooperative M1 receptor positive allosteric modulator, improves memory deficits associated with cholinergic dysfunction and is characterized by low gastrointestinal side effect risk” (Pharmacology Research & Perspectives, 2020).
Where two headings read alike, the source gives them in different places.

Key:
[1] = tested on: ileum segment of ICR mice; assay: Spontaneous ileum contraction; parameters: species or system mouse; conditions: 0.01, 0.1, and 1 μmol/L applied cumulatively
Procedure: ICR mice were fasted overnight and sacrificed by decapitation, and the ileum was removed and the luminal contents were gently flushed out with ice‐cold modified Krebs buffer (NaCl, 120.7 mmol/L; KCl, 5.9 mmol/L; NaHCO3, 15.5 mmol/L; MgCl2, 1.2 mmol/L; NaH2PO4, 1.2 mmol/L; CaCl2, 2.5 mmol/L; glucose, 11.5 mmol/L). The ileum segment (approximately 5 mm in length) was suspended in a 10‐mL organ bath filled with oxygenated (95% O2 and 5% CO2) modified Krebs buffer at 37°C. One end of the ileum segment was tied to a hook and the other end was secured with a silk thread to an isometric force transducer (MLT050/A, ADInstruments) connected to a data acquisition system (PowerLab 8/30 ML870 and Octal Bridge Amp ML228, ADInstruments). The ileum segment was subjected to an initial tension of 0.3 to 0.4 g and was allowed to equilibrate for at least 30 minutes. After the equilibration period, spontaneous contractions were measured for 3 minutes (pretreatment) and then increasing concentrations of a test compound (0.01, 0.1, and 1 μmol/L) were cumulatively applied at 3‐minute intervals. LabChart software (ADInstruments) was used to analyze the spontaneous contractions. The mean amplitude of spontaneous contractions at each concentration was normalized to that observed at pretreatment.

[2] = tested on: IP1 production in the hippocampus, prefrontal cortex, striatum, and brainstem; assay: In vivo IP1 assay, wild‐type and M1R KO mice; parameters: species or system mouse
Procedure: (§1) Eight‐week‐old Long‐Evans rats, 8‐ to 9‐week‐old C57BL/6J mice, and 22‐ or 29‐week‐old M1R KO mice and their WT littermates were used in this study. On the day of the experiment, animals were placed in individual cages and acclimated for more than 1 hour. A test compound or vehicle was administered 2 hours before the animals were sacrificed. […] LiCl (10 mmol/kg, s.c.) was injected 1 hour before sacrifice. In the repeated administration study, a test compound was administered to mice once daily for 13 days; on day 14, animals were treated with a test compound and LiCl (10 mmol/kg, s.c.) and then sacrificed. Animals were killed by decapitation, and blood was collected into tubes containing ethylenediaminetetraacetic acid for pharmacokinetic analysis; brains were quickly dissected, frozen on dry ice, and stored at −80°C until analysis. Brain tissues were homogenized in 19 (for rat tissues) or 39 (for mouse tissue) volumes of homogenization buffer (10 mmol/L HEPES pH 7.4, 50 mmol/L LiCl, 150 mmol/L NaCl, and 1% Triton X‐100), and the homogenate was incubated on a rotator for 1 hour, followed by centrifugation. The supernatant was diluted with 39 (for rat tissues) or 19 (for mouse tissues) volumes of dilution buffer (10 mmol/L HEPES pH 7.4, 50 mmol/L LiCl, and 150 mmol/L NaCl). IP1 and protein concentrations in the diluted supernatant were measured using IP‐One HTRF assay kit (Cisbio Bioassays) and BCA Protein Assay Kit (Thermo Fisher Scientific Inc), respectively, according to the manufacturers’ instructions. IP1 production was expressed as the ratio of IP1 to protein concentrations.

[3] = tested on: IP1 production in the mouse hippocampus; assay: In vivo IP1 assay after repeated administration for 13 days; conditions: for Basal IP1 level in the mouse hippocampus: after repeated treatment 10 mg/kg p.o. for 13 days, mean ± SEM, n = 10; for magnitude of IP1 increase in mouse hippocampus after 13 days of pretreatment: pretreatment 10 mg/kg p.o. once daily, vs single administration
Procedure: as §1

[4] = tested on: SD rats
Procedure: Seven‐ or 8‐week‐old SD rats were individually placed into observation cages. After an acclimation period of at least 1 hour, a test compound was administered to the rats. […] Cholinergic side effects, including diarrhea, lacrimation, salivation, miosis, and fasciculation, were assessed blindly, as described previously,27 and convulsion was scored using a modified Racine scale,37 as follows: stage 0, normal; stage 1, immobility; stage 2, forelimb and/or tail extension and rigid posture; stage 3, repetitive movements, head nodding, and gnawing; stage 4, rearing and falling; stage 5, continuous rearing and falling; stage 6, severe tonic‐clonic seizure with loss of postural control; and stage 7, death in the first 2 hours.

[5] = tested on: ATPase, Ca2+, Skeletal Muscle; assay: Selectivity panel; type: biochemical
From the text: (§2) The selectivity of T‐495 at 10 μmol/L against a panel of 106 targets, including receptors, enzymes, ion channels, and transporters, was characterized (Eurofins Panlabs Taiwan Ltd., Taipei, Taiwan).

[6] = molecular target: T1, Matrix metalloproteinase-7 (MMP-7) (Homo sapiens, UniProt P09237); assay: Selectivity panel; type: biochemical
T1 construct: purchased Eurofins Panlabs Taiwan Ltd
From the text: as §2

[7] = tested on: Protein kinase A (PKA); assay: Selectivity panel; type: biochemical
From the text: as §2

[8] = tested on: Phosphodiesterase PDE4; assay: Selectivity panel; type: biochemical
From the text: as §2

[9] = molecular target: T2, Phosphodiesterase PDE4D2 (Homo sapiens, UniProt Q08499); assay: Selectivity panel; type: biochemical
T2 construct: purchased Eurofins Panlabs Taiwan Ltd
From the text: as §2

[10] = molecular target: T3, Cyclooxygenase-2 (COX-2) (Homo sapiens, UniProt P35354); assay: Selectivity panel; type: biochemical
T3 construct: purchased Eurofins Panlabs Taiwan Ltd
From the text: as §2

[11] = molecular target: T4, Xanthine oxidase (Bos taurus, UniProt P80457); assay: Selectivity panel; type: biochemical
T4 construct: purchased Eurofins Panlabs Taiwan Ltd
From the text: as §2

[12] = molecular target: T5, Metalloproteinase, Neutral Endopeptidase (Homo sapiens, UniProt P08473); assay: Selectivity panel; type: biochemical
T5 construct: purchased Eurofins Panlabs Taiwan Ltd
From the text: as §2

[13] = molecular target: T6, Monoamine oxidase B (MAO-B) (Homo sapiens, UniProt P27338); assay: Selectivity panel; type: biochemical
T6 construct: purchased Eurofins Panlabs Taiwan Ltd
From the text: as §2

[14] = molecular target: T7, Phosphodiesterase PDE10A2 (Homo sapiens, UniProt Q9Y233); assay: Selectivity panel; type: biochemical
T7 construct: purchased Eurofins Panlabs Taiwan Ltd
From the text: as §2

[15] = rats, 1 mg/kg p.o., observed 15 min to 8 h, rats with effect/total
[16] = rats, 3 mg/kg p.o., observed 15 min to 8 h, rats with effect/total
[17] = rats, 10 mg/kg p.o., observed 15 min to 8 h, rats with effect/total
[18] = rats, 30 mg/kg p.o., observed 15 min to 8 h, rats with effect/total
[19] = rats, 100 mg/kg p.o., observed 15 min to 8 h, rats with effect/total
[20] = rats, T-495 0.3 mg/kg p.o. alone, combination study, rats with effect/total
[21] = rats, donepezil 0.1 mg/kg + T-495 0.3 mg/kg p.o., rats with effect/total

T7 sequence (Q9Y233 267-1055 limits assumed): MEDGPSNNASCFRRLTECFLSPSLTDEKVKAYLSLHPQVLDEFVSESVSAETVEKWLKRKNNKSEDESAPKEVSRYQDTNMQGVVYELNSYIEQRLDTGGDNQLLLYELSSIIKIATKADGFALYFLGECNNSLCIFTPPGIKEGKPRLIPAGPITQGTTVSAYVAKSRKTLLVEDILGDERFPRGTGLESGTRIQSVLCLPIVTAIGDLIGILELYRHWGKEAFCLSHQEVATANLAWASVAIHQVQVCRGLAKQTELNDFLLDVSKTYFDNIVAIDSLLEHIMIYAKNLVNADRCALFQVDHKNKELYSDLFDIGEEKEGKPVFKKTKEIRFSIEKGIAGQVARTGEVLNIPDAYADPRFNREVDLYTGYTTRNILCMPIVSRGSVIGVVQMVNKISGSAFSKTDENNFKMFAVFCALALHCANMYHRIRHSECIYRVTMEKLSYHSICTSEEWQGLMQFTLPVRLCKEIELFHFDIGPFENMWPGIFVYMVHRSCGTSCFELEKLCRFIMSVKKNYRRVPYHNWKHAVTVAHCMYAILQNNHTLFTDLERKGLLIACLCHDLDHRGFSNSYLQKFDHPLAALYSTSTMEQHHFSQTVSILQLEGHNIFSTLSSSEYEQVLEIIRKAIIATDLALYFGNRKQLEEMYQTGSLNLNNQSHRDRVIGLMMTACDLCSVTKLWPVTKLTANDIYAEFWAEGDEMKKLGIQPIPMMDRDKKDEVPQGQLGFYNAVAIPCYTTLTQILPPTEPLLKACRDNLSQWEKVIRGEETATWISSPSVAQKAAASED
T3 sequence (P35354 18-604): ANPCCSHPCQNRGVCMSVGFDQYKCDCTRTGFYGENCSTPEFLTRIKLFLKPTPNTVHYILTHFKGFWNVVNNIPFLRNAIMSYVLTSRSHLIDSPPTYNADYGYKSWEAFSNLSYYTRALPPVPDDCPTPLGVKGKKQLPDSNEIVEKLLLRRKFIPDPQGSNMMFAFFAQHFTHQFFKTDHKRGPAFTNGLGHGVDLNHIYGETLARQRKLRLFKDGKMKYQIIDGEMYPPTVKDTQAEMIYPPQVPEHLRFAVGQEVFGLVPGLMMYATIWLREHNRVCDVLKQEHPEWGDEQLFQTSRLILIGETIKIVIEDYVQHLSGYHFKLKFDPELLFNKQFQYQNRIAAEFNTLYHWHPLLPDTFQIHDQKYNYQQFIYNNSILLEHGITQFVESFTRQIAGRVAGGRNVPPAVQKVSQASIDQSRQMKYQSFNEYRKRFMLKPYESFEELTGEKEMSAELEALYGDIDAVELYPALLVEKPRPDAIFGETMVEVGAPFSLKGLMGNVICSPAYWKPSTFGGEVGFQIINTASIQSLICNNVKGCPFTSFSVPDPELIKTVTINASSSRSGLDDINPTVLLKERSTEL
T1 sequence (P09237 95-267): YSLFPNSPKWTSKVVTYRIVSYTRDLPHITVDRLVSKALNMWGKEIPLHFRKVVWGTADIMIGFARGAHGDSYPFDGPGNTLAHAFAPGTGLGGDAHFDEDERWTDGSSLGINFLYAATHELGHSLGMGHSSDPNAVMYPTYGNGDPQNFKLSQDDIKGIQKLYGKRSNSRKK
T4 sequence (P80457 2-1332 limits assumed): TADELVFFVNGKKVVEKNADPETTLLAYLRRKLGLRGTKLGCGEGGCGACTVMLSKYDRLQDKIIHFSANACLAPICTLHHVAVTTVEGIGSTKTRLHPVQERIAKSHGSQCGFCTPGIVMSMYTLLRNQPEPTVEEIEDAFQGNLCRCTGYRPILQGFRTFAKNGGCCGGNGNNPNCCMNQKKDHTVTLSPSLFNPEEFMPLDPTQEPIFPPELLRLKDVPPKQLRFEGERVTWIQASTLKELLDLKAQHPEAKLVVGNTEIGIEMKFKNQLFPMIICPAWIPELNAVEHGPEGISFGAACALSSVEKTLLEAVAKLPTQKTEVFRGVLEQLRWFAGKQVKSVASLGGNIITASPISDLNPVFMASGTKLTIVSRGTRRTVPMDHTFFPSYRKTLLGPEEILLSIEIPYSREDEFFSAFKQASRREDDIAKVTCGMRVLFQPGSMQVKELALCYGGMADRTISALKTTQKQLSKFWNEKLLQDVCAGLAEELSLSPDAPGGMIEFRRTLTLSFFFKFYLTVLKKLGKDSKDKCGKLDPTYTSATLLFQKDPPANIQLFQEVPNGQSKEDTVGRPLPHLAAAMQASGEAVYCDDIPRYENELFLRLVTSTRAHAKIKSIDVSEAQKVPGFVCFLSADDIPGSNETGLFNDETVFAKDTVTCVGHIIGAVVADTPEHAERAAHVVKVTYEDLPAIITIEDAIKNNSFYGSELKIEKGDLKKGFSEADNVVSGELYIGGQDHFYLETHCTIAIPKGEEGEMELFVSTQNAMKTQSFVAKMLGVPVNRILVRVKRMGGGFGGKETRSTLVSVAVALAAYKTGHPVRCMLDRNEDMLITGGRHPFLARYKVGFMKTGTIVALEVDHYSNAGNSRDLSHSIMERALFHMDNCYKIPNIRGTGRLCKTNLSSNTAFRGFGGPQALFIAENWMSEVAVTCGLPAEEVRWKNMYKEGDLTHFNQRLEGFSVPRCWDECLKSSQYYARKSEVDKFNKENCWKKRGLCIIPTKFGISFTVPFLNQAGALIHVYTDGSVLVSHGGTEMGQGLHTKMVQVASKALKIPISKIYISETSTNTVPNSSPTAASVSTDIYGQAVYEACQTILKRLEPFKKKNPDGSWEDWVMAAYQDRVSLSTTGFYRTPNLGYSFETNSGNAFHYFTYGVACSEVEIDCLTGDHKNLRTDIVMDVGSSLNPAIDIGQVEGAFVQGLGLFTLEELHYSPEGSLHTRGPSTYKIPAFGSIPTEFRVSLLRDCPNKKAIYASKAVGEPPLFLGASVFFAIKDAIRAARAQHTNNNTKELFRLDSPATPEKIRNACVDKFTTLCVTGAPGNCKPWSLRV
T6 sequence (P27338 whole entry): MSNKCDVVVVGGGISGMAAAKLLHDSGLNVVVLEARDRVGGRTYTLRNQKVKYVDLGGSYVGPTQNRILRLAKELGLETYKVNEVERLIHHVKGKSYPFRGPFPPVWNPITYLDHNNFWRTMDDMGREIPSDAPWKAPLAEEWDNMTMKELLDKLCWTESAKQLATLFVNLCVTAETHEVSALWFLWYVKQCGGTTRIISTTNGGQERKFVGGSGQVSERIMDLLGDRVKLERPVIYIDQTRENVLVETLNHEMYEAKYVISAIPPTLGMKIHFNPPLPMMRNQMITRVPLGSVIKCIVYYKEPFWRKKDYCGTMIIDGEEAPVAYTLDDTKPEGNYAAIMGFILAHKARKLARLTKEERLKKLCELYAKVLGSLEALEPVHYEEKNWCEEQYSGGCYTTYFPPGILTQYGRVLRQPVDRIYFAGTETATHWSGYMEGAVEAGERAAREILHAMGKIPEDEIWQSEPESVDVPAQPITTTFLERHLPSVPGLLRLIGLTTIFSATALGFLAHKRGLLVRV
T5 sequence (P08473 whole entry): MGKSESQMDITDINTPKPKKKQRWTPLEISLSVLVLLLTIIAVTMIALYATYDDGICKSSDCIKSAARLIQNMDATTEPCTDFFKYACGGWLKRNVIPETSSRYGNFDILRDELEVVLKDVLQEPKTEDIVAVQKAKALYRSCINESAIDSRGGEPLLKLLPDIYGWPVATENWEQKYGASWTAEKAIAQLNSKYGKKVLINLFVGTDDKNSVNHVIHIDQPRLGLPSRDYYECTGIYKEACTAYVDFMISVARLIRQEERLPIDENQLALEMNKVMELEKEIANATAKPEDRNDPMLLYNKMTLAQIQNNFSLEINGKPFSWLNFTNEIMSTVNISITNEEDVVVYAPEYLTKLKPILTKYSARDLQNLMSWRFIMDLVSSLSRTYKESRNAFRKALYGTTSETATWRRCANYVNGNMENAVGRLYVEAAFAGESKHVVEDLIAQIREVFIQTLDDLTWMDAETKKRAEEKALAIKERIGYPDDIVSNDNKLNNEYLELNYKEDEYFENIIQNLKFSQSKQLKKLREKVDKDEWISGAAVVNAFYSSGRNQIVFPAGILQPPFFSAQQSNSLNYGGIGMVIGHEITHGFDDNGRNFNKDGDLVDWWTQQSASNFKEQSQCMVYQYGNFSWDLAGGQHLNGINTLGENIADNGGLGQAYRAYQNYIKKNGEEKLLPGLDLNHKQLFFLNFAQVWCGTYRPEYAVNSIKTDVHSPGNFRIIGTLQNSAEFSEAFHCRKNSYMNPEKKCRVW
T2 sequence (Q08499 303-809 limits assumed): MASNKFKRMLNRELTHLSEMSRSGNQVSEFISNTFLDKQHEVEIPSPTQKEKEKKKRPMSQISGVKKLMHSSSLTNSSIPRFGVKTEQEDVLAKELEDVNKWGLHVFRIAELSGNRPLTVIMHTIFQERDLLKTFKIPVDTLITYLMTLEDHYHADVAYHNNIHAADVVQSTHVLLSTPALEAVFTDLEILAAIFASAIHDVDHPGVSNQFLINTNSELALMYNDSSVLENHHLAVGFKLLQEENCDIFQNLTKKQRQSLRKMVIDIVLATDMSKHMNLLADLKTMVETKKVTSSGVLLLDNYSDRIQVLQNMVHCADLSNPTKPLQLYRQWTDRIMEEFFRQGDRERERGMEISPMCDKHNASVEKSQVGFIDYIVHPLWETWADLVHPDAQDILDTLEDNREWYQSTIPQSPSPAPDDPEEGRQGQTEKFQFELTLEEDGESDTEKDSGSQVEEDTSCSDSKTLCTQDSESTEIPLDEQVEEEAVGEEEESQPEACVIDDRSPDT

`Cc1ccc(Cc2cc3c(=O)n([C@H]4CCCC[C@@H]4O)cnc3c3ccccc23)cn1` [MK‐7622, 3‐((1S,2S)‐2‐hydroxycyclohexyl)‐6‐((6‐methylpyridin‐3‐yl)methyl)benzo[h]quinazolin‐4(3H)‐one, reference compound] was tested, and the “concentration at which spontaneous ileum contraction was increased” value [1] was at most 0.01 µmol/L, the “IP1 production in the brainstem” value ([2]; M1R KO mice (and wild‐type), 20 mg/kg p.o.) was “slight reduction” and the “IP1 production in hippocampus, prefrontal cortex, and striatum” value (“IP1 production in hippocampus” for short) ([2]; M1R KO mice, 20 mg/kg p.o.) was “did not cause a significant increase”. The “IP1 production in the brainstem” value ([2]; wild‐type mice, 20 mg/kg p.o.) was “slightly reduced”, the “IP1 production in the forebrain” value ([2]; wild‐type mice, 20 mg/kg p.o.) was “increased” and the “Basal IP1 level in the mouse hippocampus” value [3] was 0.99± 0.05 nmol/mg protein. For the same compound, the “magnitude of IP1 increase in mouse hippocampus after 13 days of pretreatment” value [3] was “comparable to those after single administration”, the Convulsion ([4]; SD, rat, in vivo, po, 3 mg/kg) was 0/6 and the Fasciculation ([4]; SD, rat, in vivo, po, 3 mg/kg) was 0/6. For the same compound, the Lacrimation ([4]; SD, rat, in vivo, po, 3 mg/kg) was 0/6, the “Loose or mucous stool or diarrhea” value ([4]; SD, rat, in vivo, po, 3 mg/kg) was 2/6 and the Miosis ([4]; SD, rat, in vivo, po, 3 mg/kg) was 0/6. The Salivation ([4]; SD, rat, in vivo, po, 3 mg/kg) was 0/6, the Convulsion ([4]; SD, rat, in vivo, po, 10 mg/kg) was 0/6 and the Fasciculation ([4]; SD, rat, in vivo, po, 10 mg/kg) was 0/6. For the same compound, the Lacrimation ([4]; SD, rat, in vivo, po, 10 mg/kg) was 0/6, the “Loose or mucous stool or diarrhea” value ([4]; SD, rat, in vivo, po, 10 mg/kg) was 3/6 and the Miosis ([4]; SD, rat, in vivo, po, 10 mg/kg) was 0/6. The Salivation ([4]; SD, rat, in vivo, po, 10 mg/kg) was 0/6, the Convulsion ([4]; SD, rat, in vivo, po, 30 mg/kg) was 0/6 and the Fasciculation ([4]; SD, rat, in vivo, po, 30 mg/kg) was 0/6. For the same compound, the Lacrimation ([4]; SD, rat, in vivo, po, 30 mg/kg) was 0/6, the “Loose or mucous stool or diarrhea” value ([4]; SD, rat, in vivo, po, 30 mg/kg) was 6/6 and the Miosis ([4]; SD, rat, in vivo, po, 30 mg/kg) was 0/6. For the same compound, the Salivation ([4]; SD, rat, in vivo, po, 30 mg/kg) was 0/6, the “dose difference between memory improvement and induction of cholinergic side effects, including diarrhea” value ([4]; rat, in vivo) was “onefold” and the diarrhea score ([4]; rat, in vivo, po, 3 mg/kg) was “tended to increase”.
With `Cc1c(Cc2ccc(Cl)nc2)cc2c(c1Cl)OCN([C@H]1CCC[C@@H]1O)C2=O` [T‐495, 8‐chloro‐6‐((6‐chloropyridin‐3‐yl)methyl)‐3‐((1S,2S)‐2‐hydroxycyclopentyl)‐7‐methyl‐2,3‐dihydro‐4H‐1,3‐benzoxazin‐4‐one] the “concentration at which spontaneous ileum contraction was increased” value [1] was 1 µmol/L, the “% inhibition at 10 μM” value [5] was 0% and the inhibition at 10 µM [6] was 3%. The “% inhibition at 10 μM” value [7] was -4%, the “% inhibition at 10 μM” value [8] was 22% and the inhibition at 10 µM [9] was 2%. It also gave an inhibition at 10 µM [10] of 31%, an inhibition at 10 µM [11] of 7% and an inhibition at 10 µM [12] of 10%. For the same compound, the inhibition at 10 µM [13] was 6%, the inhibition at 10 µM [14] was 5% and the “IP1 production in hippocampus” value ([2]; M1R KO mice, 10 mg/kg p.o.) was “did not cause a significant increase”. For the same compound, the “IP1 production in hippocampus” value ([2]; wild‐type mice, 10 mg/kg p.o.) was “significantly increased”, the “Basal IP1 level in the mouse hippocampus” value [3] was 1.09± 0.03 nmol/mg protein and the “magnitude of IP1 increase in mouse hippocampus after 13 days of pretreatment” value [3] was “comparable to those after single administration”. For the same compound, the “dose difference between memory improvement and induction of cholinergic side effects, including diarrhea” value ([4]; rats) was 100 fold, the Convulsion [4, 15] was 0/6 and the Fasciculation [4, 15] was 0/6. The Lacrimation [4, 15] was 0/6, the “Loose or mucous stool or diarrhea” value [4, 15] was 0/6 and the Miosis [4, 15] was 0/6. The Salivation [4, 15] was 0/6, the Convulsion [4, 16] was 0/6 and the Fasciculation [4, 16] was 0/6. The Lacrimation [4, 16] was 0/6, the “Loose or mucous stool or diarrhea” value [4, 16] was 0/6 and the Miosis [4, 16] was 0/6. For the same compound, the Salivation [4, 16] was 0/6, the Convulsion [4, 17] was 0/6 and the Fasciculation [4, 17] was 0/6. For the same compound, the Lacrimation [4, 17] was 0/6, the “Loose or mucous stool or diarrhea” value [4, 17] was 0/6 and the Miosis [4, 17] was 0/6. The Salivation [4, 17] was 0/6, the Convulsion [4, 18] was 0/6 and the Fasciculation [4, 18] was 0/6. The Lacrimation [4, 18] was 0/6, the “Loose or mucous stool or diarrhea” value [4, 18] was 0/6 and the Miosis [4, 18] was 0/6. The Salivation [4, 18] was 0/6, the Convulsion [4, 19] was 1/6 and the Fasciculation [4, 19] was 0/6. For the same compound, the Lacrimation [4, 19] was 0/6, the “Loose or mucous stool or diarrhea” value [4, 19] was 5/6 and the Miosis [4, 19] was 0/6. The Salivation [4, 19] was 1/6, the diarrhea score ([4]; rats, 100 mg/kg p.o., vs vehicle) was “significantly increased” and the Convulsion [4, 20] was 0/6. The Fasciculation [4, 20] was 0/6, the Lacrimation [4, 20] was 0/6 and the “Loose, mucous stool, or diarrhea” value [4, 20] was 0/6. For the same compound, the Myosis [4, 20] was 0/6, the Salivation [4, 20] was 0/6 and the “cholinergic side effects, combination with donepezil” value ([4]; rats, T‐495 0.3 mg/kg + donepezil 0.1 mg/kg) was “no cholinergic side effects were observed”. For the same compound, the Convulsion [4, 21] was 0/6, the Fasciculation [4, 21] was 0/6 and the Lacrimation [4, 21] was 0/6. The “Loose, mucous stool, or diarrhea” value [4, 21] was 0/6, the Myosis [4, 21] was 0/6 and the Salivation [4, 21] was 0/6. For the same compound, the cholinergic side effects ([4]; rats, doses up to 30 mg/kg p.o.) was “did not elicit any cholinergic side effects”.
